The values below are quoted from earlier work in publication PMC7984154 (Chemmedchem, 2020).

For data set [1], the system named is FAP. To be noted: cancer indications, also in combination with other chemotherapies.
The conditions of data set [2]: steady state, oral dose of 5 mg.

As for `CC(C)[C@H](N)C(=O)N1CCC[C@H]1B(O)O` [PT100, talabostat], in data set [1], the “efficacy in the clinical setting” value was “minimal efficacy”.

Turning to `CC#CCn1c(N2CCC[C@@H](N)C2)nc2c1c(=O)n(Cc1nc(C)c3ccccc3n1)c(=O)n2C` [linagliptin], the “clinical maximum plasma concentration” value in data set [2] is 12 nM. Moreover, the maximal plasma concentrations (single dose 600 mg) is around 4 µM. Under “single rising dose studies”, the highest tolerable dose is 600 mg.
